Two compounds from patent EP2173340B1, “METHODS OF ENHANCING COGNITIVE FUNCTION USING NON-PEPTIDIC COMPOUNDS” (Acumen Pharmaceuticals, Inc., priority 2007, dated 2009) can be followed below.

In the experiment the target is T1, Aβ1-42 ADDLs (Homo sapiens, UniProt P05067).
T1 construct: Synthetic Aβ1-42 powder was dissolved in 1,1,1,3,3,3 hexafluorisopropanol (HFIP)
In words: Alternating Lever Cyclic Ratio (ALCR) rat model. It is filed as in vivo. Conditions: for Approach Errors Mean / Perseveration Errors Mean: 20 µl via cannula aimed at lateral ventricle, tested about 3 hours following injection, base line error rate equalized to 1.00. The method, then:
Preparations of Aβ1-42 ADDLs and a potential therapeutic compounds under the Alternating Lever Cyclic Ratio (ALCR) rat model of AD were tested. This highly sensitive model has been able to detect cognitive deficits due to direct injection of cell-derived Aβ oligomers into rat brain. In this study, a direct injection of ADDLs made from synthetic Aβ1-42 and a putative therapeutic compound under the ALCR procedure were tested.
The ALCR test has proven to be much more sensitive than previously published methods for measuring drug effects on cognitive function. In this task, rats must learn a complex sequence of lever-pressing requirements in order to earn food reinforcement in a two-lever experimental chamber. Subjects must alternate between two levers by switching to the other lever after pressing the first lever enough to get food reward. The exact number of presses required for each food reward changes, first increasing from 2 responses per food pellet up to 56 presses per food pellet, then decreasing back to 2 responses per pellet. Intermediate values were based on the quadratic function, x^2 - x. One cycle was an entire ascending and descending sequence of these lever press requirements (e.g., 2, 6, 12, 20, 30, 42, 56, 56, 42, 30, 20, 12, 6, and 2 presses per food reward). Six such full cycles were presented during each daily session.
Synthetic Aβ1-42 powder was dissolved in 1,1,1,3,3,3 hexafluorisopropanol (HFIP) to afford a solution of Aβ1-42 in HFIP of about 1 mM and allowed to incubate at ambient temperature for about 1 h. The resulting solution was chilled on ice for about 5-10 min, then aliquoted into eppendorf tubes to provide about 50 µl of solution per tube. The tubes were then placed in a chemical fume hood and allowed to stand overnight to allow the HFIP to evaporate under a slow stream of nitrogen. To removed final traces of HFIP, the tubes were subjected to two SpeedVac cycles of 15 min at room temperature and about 15 to 25 in Hg of vacuum. The resulting films of monomerized Aβ1-42 peptide were stored over desiccant at -80 °C until used.
A tube of monomerized Aβ1-42 peptide was warmed to room temperature and the Aβ1-42 peptide was dissolved in anhydrous DMSO to afford a peptide stock DMSO solution containing about 10 µM to about 100 µM Aβ1-42 peptide in DMSO.
2 µl of a 20 mM stock solution of test compound in anhydrous DMSO is added to 998 µl of neural basal media (phenol red free, Gibco 12348-017) to give a compound neural basal media solution containing 40 µM of test compound in neural basal media.
For the Aβ1-42 peptide only treatment, peptide stock DMSO solution is added to 37 °C neural basal to obtain the requisite Aβ1-42 peptide monomer concentration, provided that the maximum concentration of DMSO is 1% or less, and the tube is vortexed for 30 to 60 seconds, spun down briefly in a microfuge and incubated at 37 °C for 15 min prior to the start of injections.
For the Aβ1-42 peptide plus test compound treatment, peptide stock DMSO solution is added to 37 °C compound neural basal media solution to obtain the requisite Aβ1-42 peptide monomer concentration, provided that the maximum concentration of DMSO is 1% or less, and the tube is vortexed for 30 to 36 seconds, spun down briefly in a microfuge and incubated at 37 °C for 15 min prior to the start of injections.
For control injections, compound neural basal media solution is incubated at 37 °C for 15 min prior to the start of injections.
Rats: Rats were trained under ALCR until their error rates were stable. Once the rats were placed upon the final ALCR procedure, training sessions were conducted 7 days each week until the end of the study.
Surgery: All rats received a single 28 ga cannula, which was permanently affixed to the skull, and aimed at the lateral ventricle. Half the rats received cannula in the right ventricle and half received cannula in the left ventricle. Rats were allowed 5 days to recover from surgery before training resumed. […]

The mark [1] stands for this setting: compound combined with Aβ1-42 ADDLs.

T1 sequence (P05067 672-713 limits assumed): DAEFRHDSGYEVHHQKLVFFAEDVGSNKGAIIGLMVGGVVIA

“Aβ1-42 ADDLs: ADDLs made from synthetic Aβ1-42; soluble, oligomeric, globular, non-fibrillar, neurotoxic Aβ1-42 peptides”: where the note is “injectate given alone”, the “Approach Errors Mean” value is given as 1.02 and the “Perseveration Errors Mean” value stood at 1.33. Further, the “Perseveration Error rate” value (versus baseline error rates, ADDLs alone, result in words) is on record as “significantly increased”.

Regarding `O=C(N/N=C/c1c(O)ccc2ccccc12)c1ccccc1O` [Compound 24, (E)-2-hydroxy-N'-((2-hydroxynaphthalen-1-yl)methylene) benzohydrazide], for the setting “combined with the requisite concentration of Aβ1-42 ADDLs, result in words”, the “increase in Perseveration Errors” value is recorded as “eliminated the increase in Perseveration Errors”. Further, under setting [1], the “Approach Errors Mean” value was 1.00 and the “Perseveration Errors Mean” value amounted to 0.92. The error rates result (given alone, result in words) is “did not increase error rates”. For the same compound, for the setting “injectate given alone”, the “Approach Errors Mean” value was found to be 0.96 and the “Perseveration Errors Mean” value is recorded as 0.95.
